Laboratory results reported in patent US8450270B2 (Indiana University Research and Technology Corporation, priority 2008, dated 2013).

Biological target: GLP-1 Receptor (Homo sapiens, UniProt P43220)
Experiment: Functional assay-cAMP synthesis (luciferase reporter, HEK293), GLP-1 receptor
Text: The luminescent light output indicates activation of the luciferase reporter gene, which in turn is a measure of the activation of the receptor.

Sequence of GLP-1 Receptor (P43220 24-463, species assumed): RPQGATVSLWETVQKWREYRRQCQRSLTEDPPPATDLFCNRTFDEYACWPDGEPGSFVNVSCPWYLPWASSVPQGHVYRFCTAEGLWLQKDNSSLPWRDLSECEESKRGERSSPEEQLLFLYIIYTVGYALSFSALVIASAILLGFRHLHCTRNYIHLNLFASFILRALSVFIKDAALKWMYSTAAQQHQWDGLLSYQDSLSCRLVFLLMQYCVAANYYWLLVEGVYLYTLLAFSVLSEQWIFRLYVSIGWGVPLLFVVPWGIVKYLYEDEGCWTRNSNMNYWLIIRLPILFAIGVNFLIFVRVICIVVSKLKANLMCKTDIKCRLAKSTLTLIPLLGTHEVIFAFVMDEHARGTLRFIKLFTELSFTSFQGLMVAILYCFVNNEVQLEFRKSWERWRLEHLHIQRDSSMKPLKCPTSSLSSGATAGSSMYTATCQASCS

Question: Which EC50 does the source give for `CCCCCCCCCCCCCCCC(=O)NCCCC[C@H](NC(=O)[C@H](CC(=O)O)NC(=O)[C@H](CO)NC(=O)[C@@H](NC(=O)[C@H](Cc1ccccc1)NC(=O)[C@@H](NC(=O)CNC(=O)[C@H](CCC(N)=O)NC(=O)[C@@H](CO)NC(=O)[C@@H](N)Cc1c[nH]cn1)[C@@H](C)O)[C@@H](C)O)C(=O)N[C@@H](CO)C(=O)N[C@@H](CCCCN)C(=O)N[C@@H](Cc1ccc(O)cc1)C(=O)N[C@@H](CC(C)C)C(=O)N[C@@H](CC(=O)O)C(=O)N[C@@H](CCC(=O)O)C(=O)N[C@@H](CCCNC(=N)N)C(=O)N[C@@H](CCCNC(=N)N)C(=O)N[C@@H](C)C(=O)N[C@@H](CCCCN)C(=O)N[C@@H](CC(=O)O)C(=O)N[C@@H](Cc1ccccc1)C(=O)N[C@H](C(=O)N[C@@H](CCC(N)=O)C(=O)N[C@@H](Cc1c[nH]c2ccccc12)C(=O)N[C@@H](CC(C)C)C(=O)N[C@@H](CCSC)C(=O)N[C@@H](CC(N)=O)C(=O)N[C@H](C(N)=O)[C@@H](C)O)C(C)C` [Peptide dS2K10(C16)E16K20-Gluc Amide, HXQGTFTSDKSKYLDERRAKDFVQWLMNT-amide] here?
Answer: The EC50 was 0.041 nM.

Question: For `CCCCCCCCCCCCCC(=O)NCCCC[C@H](NC(=O)[C@H](CC(=O)O)NC(=O)[C@H](CO)NC(=O)[C@@H](NC(=O)[C@H](Cc1ccccc1)NC(=O)[C@@H](NC(=O)CNC(=O)[C@H](CCC(N)=O)NC(=O)[C@@H](CO)NC(=O)[C@@H](N)Cc1c[nH]cn1)[C@@H](C)O)[C@@H](C)O)C(=O)N[C@@H](CO)C(=O)N[C@@H](CCCCN)C(=O)N[C@@H](Cc1ccc(O)cc1)C(=O)N[C@@H](CC(C)C)C(=O)N[C@@H](CC(=O)O)C(=O)N[C@@H](CCC(=O)O)C(=O)N[C@@H](CCCNC(=N)N)C(=O)N[C@@H](CCCNC(=N)N)C(=O)N[C@@H](C)C(=O)N[C@@H](CCCCN)C(=O)N[C@@H](CC(=O)O)C(=O)N[C@@H](Cc1ccccc1)C(=O)N[C@H](C(=O)N[C@@H](CCC(N)=O)C(=O)N[C@@H](Cc1c[nH]c2ccccc12)C(=O)N[C@@H](CC(C)C)C(=O)N[C@@H](CCSC)C(=O)N[C@@H](CC(N)=O)C(=O)N[C@H](C(N)=O)[C@@H](C)O)C(C)C` [Peptide dS2K10(C14)E16K20-Gluc Amide, HXQGTFTSDKSKYLDERRAKDFVQWLMNT-amide], which EC50 is on record?
Answer: The EC50 was 0.041 nM.
